Measurements reported in ChEMBL document CHEMBL3997840, “Kinase-independent phosphoramidate S1P1 receptor agonist benzyl ether derivatives” (Bioorg Med Chem Lett, 2017).
One block for each compound: values may come before it.

Key:
Serum [1] = test: Drug metabolism in human serum assessed as monophosphate formation by measuring parent compound half life at 3 mg by 31P NMR method; format: ADME, cell-free
Homo sapiens = species on record: Homo sapiens; test: Selectivity ratio of EC50 for human S1P3 receptor to EC50 for human S1P1 receptor
[2] = Drug metabolism in mouse J1 cell derived neurons assessed as monophosphate formation at 3 mg after 4 days by mass spectroscopic method; format: ADME, cell-based; details: j1 cell-derived neuron, 96 h
[3] = Drug metabolism assessed as carboxypeptidase Y (unknown origin)-mediated monophosphate formation at 3 mg measured every day over 2 weeks by mass spectroscopic method; format: ADME; details: human, 336 h
[4] = Chemical stability in aqueous buffer at pH 8 at 3 mg measured every 12 mins over 13 hrs by 31P NMR method; format: physicochemical; details: pH 8, 13 h
Serum [5] = test: Drug metabolism in human serum assessed as monophosphate formation at 3 mg after 12 hrs by mass spectroscopic method; format: ADME, cell-free
[6] = Chemical stability in aqueous buffer at pH 1.5 at 3 mg measured every 12 mins over 13 hrs by 31P NMR method; format: physicochemical; details: pH 1.5, 13 h
[7] = biological target: Sphingosine 1-phosphate receptor 3 (Homo sapiens, UniProt Q99500); test: Agonist activity at human S1P3 receptor expressed in CHOK1 cell membranes by [35S]-GTPgammaS binding assay
Chain of Sphingosine 1-phosphate receptor 3 (Q99500 whole entry): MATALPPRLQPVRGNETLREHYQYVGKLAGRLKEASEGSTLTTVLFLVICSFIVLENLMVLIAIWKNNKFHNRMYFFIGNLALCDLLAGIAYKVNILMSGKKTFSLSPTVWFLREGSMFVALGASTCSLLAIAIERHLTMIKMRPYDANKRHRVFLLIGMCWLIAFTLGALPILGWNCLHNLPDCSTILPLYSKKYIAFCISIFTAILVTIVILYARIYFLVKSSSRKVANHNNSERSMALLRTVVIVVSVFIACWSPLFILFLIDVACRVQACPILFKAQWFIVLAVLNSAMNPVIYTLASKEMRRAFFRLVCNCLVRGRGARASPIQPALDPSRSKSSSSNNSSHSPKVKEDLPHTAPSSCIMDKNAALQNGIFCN

Compound: Cc1ccc(CCCC(=O)c2ccc(COC[C@@](C)(N)COP(=O)(O)O)cc2)cc1
Ratio EC50 (Homo sapiens): 29

Compound: COC(=O)[C@H](C)NP(=O)(OC[C@](C)(N)COCc1ccc(C(=O)CCCc2ccc(C)cc2)cc1)Oc1ccccc1 (some centres undefined)
Drug metabolism [2]: Metabolite_Detected | Drug metabolism [3]: Metabolite_Detected | Stability [4]: Stable | t1/2 (Serum [1]): 14 h | Drug metabolism (Serum [5]): Metabolite_Detected | Stability [6]: Stable

Compound: Cc1ccc(CCCC(=O)c2ccc(COC[C@@](C)(N)COP(=O)(N[C@@H](C)C(=O)OCc3ccccc3)Oc3ccccc3)cc2)cc1 (some centres undefined)
t1/2 (Serum [1]): 14 h

Compound: Cc1ccc(CCCC(=O)c2cc(C)c(COC[C@@](C)(N)COP(=O)(O)O)cc2C)cc1
Ratio EC50 (Homo sapiens): > 3080 | EC50 [7]: > 20 µM

More lines, now with the values ahead:

t1/2 (Serum [1]): 14 h
Compound: Cc1ccc(CCCC(=O)c2ccc(COC[C@@](C)(N)COP(=O)(N[C@@H](C)C(=O)OC(C)C)Oc3ccccc3)cc2)cc1 (some centres undefined)

t1/2 (Serum [1]): 14 h
Compound: Cc1ccc(CCCC(=O)c2cc(C)c(COC[C@@](C)(N)COP(=O)(N[C@@H](C)C(=O)OCc3ccccc3)Oc3ccccc3)cc2C)cc1 (some centres undefined)

t1/2 (Serum [1]): 14 h
Compound: COC(=O)[C@H](C)NP(=O)(OC[C@](C)(N)COCc1cc(C)c(C(=O)CCCc2ccc(C)cc2)cc1C)Oc1ccccc1 (some centres undefined)

t1/2 (Serum [1]): 14 h
Compound: Cc1ccc(CCCC(=O)c2cc(C)c(COC[C@@](C)(N)COP(=O)(N[C@@H](C)C(=O)OC(C)C)Oc3ccccc3)cc2C)cc1 (some centres undefined)
